Read-outs that look alike come from different tables or passages of the source.
How the values were obtained:
Assay type in all cases: biochemical
[1] = molecular target: PKM1 (Homo sapiens, UniProt P14618); experiment: luminescent pyruvate kinase-luciferase coupled assay, PKM1 isoform; conditions: same assay system as for PKM2
Experimental: (§1) Production of a luminescent signal based on the generation of ATP by pyruvate kinase was determined by using the ATP-dependent enzyme firefly luciferase. Three μL of substrate mix (at r.t.) in assay buffer (50 mM imidazole pH 7.2, 50 mM KCl, 7 mM MgCl2, 0.01% tween 20, 0.05% BSA) was dispensed into Kalypsys (San Diego, Calif., USA) white solid bottom 1,536 well microtiter plates using a bottle-valve solenoid-based dispenser (Kalypsys). The final concentrations of substrates in the assay were 0.1 mM ADP and 0.5 mM PEP. Twenty-three nL of compound in DMSO were delivered with a 1,536-pin array tool, and 1 μL of enzyme mix in assay buffer (final concentration, 0.1 nM pyruvate kinase, 50 mM imidazole pH 7.2, 0.05% BSA, 4° C.) was added. Microtiter plates were incubated at r.t. for 1 hour and 2 uL of luciferase detection mix (Kinase-Glo from Promega, Madison, Wis., USA) at 4° C. protected from light, was added and luminescence was read with a ViewLux (Perkin Elmer, Waltham, Mass., USA) using a 2 second exposure/plate (with 2× binning). The final concentration of DMSO was 0.5% and found not to affect the assay signal.
(§2) The same assay system was utilized to examine the activity of compound 4 and all related analogs versus PKL, PKM1 and PKR pyruvate kinase isoforms. No activity for any of the compounds were found against PKL, PKM1, or PKR.

[2] = molecular target: PKR (Homo sapiens, UniProt P30613); experiment: luminescent pyruvate kinase-luciferase coupled assay, PKR isoform; conditions: same assay system as for PKM2
Sequence of PKR (P30613 whole entry, canonical isoform): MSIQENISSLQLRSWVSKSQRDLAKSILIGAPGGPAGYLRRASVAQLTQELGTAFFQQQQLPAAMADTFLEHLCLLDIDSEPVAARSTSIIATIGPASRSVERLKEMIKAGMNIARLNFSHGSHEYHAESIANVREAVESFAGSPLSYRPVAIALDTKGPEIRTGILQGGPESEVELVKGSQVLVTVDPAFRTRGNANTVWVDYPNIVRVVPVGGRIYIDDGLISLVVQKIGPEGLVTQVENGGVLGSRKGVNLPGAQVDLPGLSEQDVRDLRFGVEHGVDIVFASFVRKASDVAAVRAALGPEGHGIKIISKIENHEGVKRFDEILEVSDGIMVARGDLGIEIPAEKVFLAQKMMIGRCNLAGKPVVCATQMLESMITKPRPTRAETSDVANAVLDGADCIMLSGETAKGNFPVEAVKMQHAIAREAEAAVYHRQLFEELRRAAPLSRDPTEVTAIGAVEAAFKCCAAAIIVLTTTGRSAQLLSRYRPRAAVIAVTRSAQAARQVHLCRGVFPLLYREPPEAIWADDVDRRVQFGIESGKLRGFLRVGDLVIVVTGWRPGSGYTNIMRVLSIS
Experimental: as §1, §2

[3] = molecular target: PKL (Homo sapiens, UniProt P30613); experiment: luminescent pyruvate kinase-luciferase coupled assay, PKL isoform; conditions: same assay system as for PKM2
Sequence of PKL (P30613 1-543 isoform P30613-2): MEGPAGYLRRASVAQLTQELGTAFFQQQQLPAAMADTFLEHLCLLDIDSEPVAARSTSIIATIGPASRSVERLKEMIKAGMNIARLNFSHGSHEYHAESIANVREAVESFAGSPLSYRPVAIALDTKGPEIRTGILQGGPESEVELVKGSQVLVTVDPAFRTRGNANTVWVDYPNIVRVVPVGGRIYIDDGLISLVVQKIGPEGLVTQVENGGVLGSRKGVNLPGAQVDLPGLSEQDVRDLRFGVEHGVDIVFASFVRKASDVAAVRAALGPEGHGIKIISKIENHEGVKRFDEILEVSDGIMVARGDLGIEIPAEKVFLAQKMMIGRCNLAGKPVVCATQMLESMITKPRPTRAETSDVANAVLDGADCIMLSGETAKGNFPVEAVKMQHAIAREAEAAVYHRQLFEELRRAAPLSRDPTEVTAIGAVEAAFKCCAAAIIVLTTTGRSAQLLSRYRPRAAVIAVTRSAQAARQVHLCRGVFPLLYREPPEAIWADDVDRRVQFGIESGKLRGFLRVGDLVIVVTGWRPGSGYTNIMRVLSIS
Experimental: as §1, §2

[4] = molecular target: hPK, M2 (Homo sapiens, UniProt P14618); experiment: luminescent pyruvate kinase-luciferase coupled assay (qHTS); conditions: for AC50: 0.1 mM ADP, 0.5 mM PEP; for Emax: maximum response (activation), read-out: Max. Res.
Sequence of hPK, M2 (P14618 whole entry): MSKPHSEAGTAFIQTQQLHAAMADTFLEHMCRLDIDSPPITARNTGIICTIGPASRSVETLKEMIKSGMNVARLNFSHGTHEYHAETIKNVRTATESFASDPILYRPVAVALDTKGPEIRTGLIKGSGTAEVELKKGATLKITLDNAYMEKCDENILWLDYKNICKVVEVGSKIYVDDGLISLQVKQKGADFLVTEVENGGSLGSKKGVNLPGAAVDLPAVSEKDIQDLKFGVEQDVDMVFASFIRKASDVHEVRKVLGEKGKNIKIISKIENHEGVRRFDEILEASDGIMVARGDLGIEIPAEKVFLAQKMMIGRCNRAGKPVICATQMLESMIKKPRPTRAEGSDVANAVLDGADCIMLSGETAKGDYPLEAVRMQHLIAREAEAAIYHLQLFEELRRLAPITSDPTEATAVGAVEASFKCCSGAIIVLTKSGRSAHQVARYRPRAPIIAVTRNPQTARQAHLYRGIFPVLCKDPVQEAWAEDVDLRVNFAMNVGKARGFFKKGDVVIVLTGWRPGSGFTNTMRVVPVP
Experimental: AC50 values were determined utilizing the luminescent pyruvate kinase-luciferase coupled assay (Inglese, J. et al, Quantitative high-throughput screening: a titration-based approach that efficiently identifies biological activities in large chemical libraries. Proc. Natl. Acad. Sci. U.S.A. 2006, 103, 11473-11478).
Luminescent Pyruvate Kinase-Luciferase Coupled Assay.
as §1
Data was normalized for AC50 values to control columns containing uninhibited enzyme (n), and AC100 inhibition (i) according the following equation: Activation (%)=[(c−n)/(n−i)]*100 where c=compound, n=DMSO neutral, i=no enzyme control. A % activity of 100% is approximately a 2-fold increase over basal assay signal (% Activation by FBP was variable but averaged 100%). Monitoring of activation was accomplished using enzyme at 3× the final concentration.
All compounds were screened using a qHTS approach, where compounds are assayed using at least seven concentrations to generate concentration-response curves for every compounds. Briefly, qHTS uses an inter-plate dilution method where the first plate contains the highest concentration of a set of compounds in DMSO, while subsequent plates contain the same compounds in the same well locations, but at successive lower concentrations. Using the protocol outlined above, the rate was calculated as a plate throughput of 18 plates/hr or approximately 7 samples/sec on the Kalypsys robotic system which means that a 7 point CRC was obtained every second on the robotic system.

Sequence of PKM1 (P14618 1-531 isoform P14618-2): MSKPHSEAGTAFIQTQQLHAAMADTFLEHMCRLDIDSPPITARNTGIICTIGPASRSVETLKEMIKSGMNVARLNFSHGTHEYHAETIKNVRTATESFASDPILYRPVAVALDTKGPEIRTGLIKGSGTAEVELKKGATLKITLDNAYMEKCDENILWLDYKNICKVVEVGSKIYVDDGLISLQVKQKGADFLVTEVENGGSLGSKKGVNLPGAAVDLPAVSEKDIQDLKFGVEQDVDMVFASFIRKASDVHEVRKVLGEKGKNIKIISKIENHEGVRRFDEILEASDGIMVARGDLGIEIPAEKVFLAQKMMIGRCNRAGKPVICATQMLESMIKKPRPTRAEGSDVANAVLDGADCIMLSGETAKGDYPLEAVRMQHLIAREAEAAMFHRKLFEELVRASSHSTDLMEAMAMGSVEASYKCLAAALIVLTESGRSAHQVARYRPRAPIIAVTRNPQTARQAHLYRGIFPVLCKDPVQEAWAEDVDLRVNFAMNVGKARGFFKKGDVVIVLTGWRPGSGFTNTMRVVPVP

SMILES | AC50 ([4]; Table 4, read-out: AC50) [nM] | Emax ([4]; Table 4) [%] | other results
Cc1ccc(NS(=O)(=O)c2ccc3c(c2)CCC(=O)N3)cc1C [Compound 4, N-(3,4-dimethylphenyl)-2-oxo-1,2,3,4-tetrahydroquinoline-6-sulfonamide] |  |  | activity against PKM1 [1]: No activity; activity against PKR [2]: No activity; activity against PKL [3]: No activity; AC50 ([4]; Table 1, mean of three replicate experiments, read-out: hPK, M2 AC50): 650 nM; activation at 57 µM ([4]; Table 1, % activation at 57 μM of compound, mean of three replicate experiments, read-out: hPK, M2 Max. Res.): 104%; hPK, M2 Max. Res. ([4]; Table 2, % activation at 57 μM of compound, mean of three replicate experiments): 104%; hPK, M2 Max. Res. ([4]; Table 3, % activation at 57 μM of compound, mean of three replicate experiments): 104%
Cc1ccc(NS(=O)(=O)c2cc3c(cc2NC(C)C)NC(=O)CC3)cc1C [Compound 65, N-(3,4-dimethylphenyl)-7-(isopropylamino)-2-oxo-1,2,3,4-tetrahydroquinoline-6-sulfonamide] | 320 | 106 | 
CCN(CC)c1cc2c(cc1S(=O)(=O)Nc1ccc(C)c(C)c1)CCC(=O)N2 [Compound 66, 7-(diethylamino)-N-(3,4-dimethylphenyl)-2-oxo-1,2,3,4-tetrahydroquinoline-6-sulfonamide] | 7240 | 111 | 
Cc1ccc(NS(=O)(=O)c2cc3c(cc2NC(C)CO)NC(=O)CC3)cc1C (stereo not shown) [Compound 67, N-(3,4-dimethylphenyl)-7-(1-hydroxypropan-2-ylamino)-2-oxo-1,2,3,4-tetrahydroquinoline-6-sulfonamide] | 110 | 110 | 
Cc1ccc(NS(=O)(=O)c2cc3c(cc2NCCO)NC(=O)CC3)cc1C [Compound 70, N-(3,4-dimethylphenyl)-7-(2-hydroxyethylamino)-2-oxo-1,2,3,4-tetrahydroquinoline-6-su 1 fonamide] | 90 | 111 | 
Cc1ccc(NS(=O)(=O)c2cc3c(cc2N[C@@H](C)CO)NC(=O)CC3)cc1Cl [Compound 71, (S)—N-(3-chloro-4-methylphenyl)-7-(l-hydroxypropan-2-ylamino)-2-oxo-1,2,3,4-tetrahydroquinoline-6-sulfonamide] | 80 | 124 | 

Further lines, with some results ahead:

AC50 ([4]; Table 4, read-out: AC50) [nM] | Emax ([4]; Table 4) [%] | SMILES | other results
90 | 131 | Cc1ccc(NS(=O)(=O)c2cc3c(cc2N[C@@H](C)CO)NC(=O)CC3)cc1C [Compound 68, (S)—N-(3,4-dimethylphenyl)-7-(1-hydroxypropan-2-ylamino)-2-oxo-1,2,3,4-tetrahydroquinoline-6-sulfonamide] | 
370 | 87.7 | Cc1ccc(NS(=O)(=O)c2cc3c(cc2N[C@H](C)CO)NC(=O)CC3)cc1C [Compound 69, (R)—N-(3,4-dimethylphenyl)-7-(1-hydroxypropan-2-ylamino)-2-oxo-1,2,3,4-tetrahydroquinoline-6-sulfonamide] | 
270 | 99 | Cc1cc(NS(=O)(=O)c2cc3c(cc2N[C@@H](C)CO)NC(=O)CC3)ccc1F [Compound 72, (S)—N-(4-fluoro-3-methylphenyl)-7-(1-hydroxypropan-2-ylamino)-2-oxo-1,2,3,4-tetrahydroquinoline-6-sulfonamide] | 
140 | 95 | C[C@@H](CO)Nc1cc2c(cc1S(=O)(=O)Nc1ccc(F)c(Cl)c1)CCC(=O)N2 [Compound 73, (S)—N-(3-chloro-4-fluorophenyl)-7-(1-hydroxypropan-2-ylamino)-2-oxo-1,2,3,4-tetrahydroquinoline-6-sulfonamide] | 

Reference: patent US9708267B2, “Activators of human pyruvate kinase” (The United States of America, as represented by the …, priority 2010, dated 2017)
